From ChEMBL document CHEMBL1158861, “Zanhasaponins A and B, antiphospholipase A2 saponins from an antiinflammatory extract of Zanha africana root bark” (J Nat Prod, 1997)

Tests used:
[1] = biological target: Acidic phospholipase A2 2 (Naja naja) (UniProt P15445); settings: 1.3 nM
Description: Inhibition of Naja Naja PLA2 at 1.3 nM

[2] = biological target: Acidic phospholipase A2 2 (Naja naja) (UniProt P15445); assay: Inhibition of Naja Naja PLA2 at […]
[3] = species on record: Mus musculus; assay: Effect on oxazolone-induced delayed type hypersensitivity in Swiss mouse assessed as reduction in ear thickness at 0.05 mg/ear after 102 hrs; assay type: functional; set-up: scale not given: the % may be the effect or the level left
[4] = species on record: Mus musculus; assay: Effect on oxazolone-induced delayed type hypersensitivity in Swiss mouse assessed as reduction in ear thickness at 0.05 mg/ear after 96 hrs; assay type: functional; set-up: scale not given: the % may be the effect or the level left
[5] = species on record: Mus musculus; assay: Effect on oxazolone-induced delayed type hypersensitivity in Swiss mouse assessed as reduction in ear thickness at 0.05 mg/ear after 48 hrs; assay type: functional; set-up: scale not given: the % may be the effect or the level left
[6] = species on record: Mus musculus; assay: Effect on oxazolone-induced delayed type hypersensitivity in Swiss mouse assessed as reduction in ear thickness at 0.05 mg/ear after 72 hrs; assay type: functional; set-up: scale not given: the % may be the effect or the level left
[7] = system: Mus musculus; assay: Antiinflammatory activity against TPA-induced ear edema in Swiss mouse assessed as reduction in ear thickness at 0.05 mg/ear after 10 days; assay type: functional; set-up: scale not given: the % may be the effect or the level left
[8] = species on record: Mus musculus; assay: Effect on oxazolone-induced delayed type hypersensitivity in Swiss mouse assessed as reduction in ear thickness at 0.05 mg/ear after 24 hrs; assay type: functional; set-up: scale not given: the % may be the effect or the level left
[9] = biological target: Acidic phospholipase A2 2 (Naja naja, UniProt P15445); assay: Inhibition of Naja Naja PLA2
[10] = system: Mus musculus; assay: Antiinflammatory activity against Arachidonic acid-induced ear edema in Swiss mouse assessed as reduction in ear thickness at 2 mg/ear; assay type: functional; set-up: scale not given: the % may be the effect or the level left

Sequence of Acidic phospholipase A2 2 (P15445 whole entry): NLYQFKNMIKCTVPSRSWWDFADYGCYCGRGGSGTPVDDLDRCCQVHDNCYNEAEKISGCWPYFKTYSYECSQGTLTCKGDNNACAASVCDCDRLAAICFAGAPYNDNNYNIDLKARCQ
Sequence of Acidic phospholipase A2 2 (Naja naja) (P15445 whole entry): as above

CO[C@H]1[C@H](O)[C@@H](O)[C@H](O)[C@H](O)[C@H]1O
inhibition [1]: 45%

C[C@@H]1O[C@@H](O[C@H]2[C@H](OC(=O)[C@]34CCC(C)(C)C[C@H]3C3=CC[C@@H]5[C@@]6(C)C[C@H](O)[C@H](O[C@@H]7O[C@H](C(=O)O)[C@@H](O)[C@H](O)[C@H]7O)[C@@](C)(C(=O)O)[C@@H]6CC[C@@]5(C)[C@]3(C)C[C@H]4O)O[C@@H](C)[C@H](O)[C@H]2O)[C@H](O[C@@H]2OC[C@@H](O)[C@H](O[C@@H]3OC[C@@H](O)[C@H](O)[C@H]3O)[C@H]2O)[C@H](O)[C@H]1O
inhibition [2]: 30%

C[C@@H]1C[C@H]2[C@@H]3CCC4=CC(=O)C=C[C@]4(C)[C@@]3(F)[C@@H](O)C[C@]2(C)[C@@]1(O)C(=O)CO [DEXAMETHASONE]
Activity [3]: 84%
Activity [4]: 81%
Activity [5]: 89%
Activity [6]: 93%
Activity [7]: 81%
Activity [8]: 76%

CO[C@H]1[C@H](O)[C@@H](O)[C@@H](O)[C@H](O)[C@@H]1O [METHYLINOSITOL]
IC50 [9]: 1920 µM

CC(Cc1ccc(O)c(O)c1)C(C)Cc1ccc(O)c(O)c1 (configuration not stated) [NORDIHYDROGUAIARETIC ACID]
Activity [10]: 50%

C[C@@H]1O[C@@H](O[C@H]2[C@H](OC(=O)[C@]34CCC(C)(C)C[C@H]3C3=CC[C@@H]5[C@@]6(C)C[C@H](O)[C@H](O[C@@H]7O[C@H](C(=O)O)[C@@H](O)[C@H](O)[C@H]7O)[C@@](C)(C(=O)O)[C@@H]6CC[C@@]5(C)[C@]3(C)C[C@H]4O)O[C@@H](C)[C@H](O)[C@H]2O)[C@H](O)[C@H](O)[C@H]1O [ZANHASAPONIN A]
IC50 [9]: 470 µM

C[C@@H]1O[C@@H](O[C@H]2[C@H](OC(=O)[C@]34CCC(C)(C)C[C@H]3C3=CC[C@@H]5[C@@]6(C)C[C@H](O)[C@H](O[C@@H]7O[C@H](C(=O)O)[C@@H](O)[C@H](O)[C@H]7O)[C@@](C)(C(=O)O)[C@@H]6CC[C@@]5(C)[C@]3(C)C[C@H]4O)O[C@@H](C)[C@H](O)[C@H]2O)[C@H](O[C@@H]2OC[C@@H](O)[C@H](O)[C@H]2O)[C@H](O)[C@H]1O [ZANHASAPONIN B]
IC50 [9]: 440 µM
